In US8772499B2, “TRPV3 modulators” (AbbVie Inc., priority 2011, dated 2014) one finds IC50 data, which are given here for 35 compounds.

As a reminder, the IC50 is the concentration that inhibits the measured activity by half.

The target in the first assay is T1, human TRPV3 (Homo sapiens, UniProt Q8NET8).
T1 construct: expressed in transfected cells
T1 sequence (Q8NET8 1-790): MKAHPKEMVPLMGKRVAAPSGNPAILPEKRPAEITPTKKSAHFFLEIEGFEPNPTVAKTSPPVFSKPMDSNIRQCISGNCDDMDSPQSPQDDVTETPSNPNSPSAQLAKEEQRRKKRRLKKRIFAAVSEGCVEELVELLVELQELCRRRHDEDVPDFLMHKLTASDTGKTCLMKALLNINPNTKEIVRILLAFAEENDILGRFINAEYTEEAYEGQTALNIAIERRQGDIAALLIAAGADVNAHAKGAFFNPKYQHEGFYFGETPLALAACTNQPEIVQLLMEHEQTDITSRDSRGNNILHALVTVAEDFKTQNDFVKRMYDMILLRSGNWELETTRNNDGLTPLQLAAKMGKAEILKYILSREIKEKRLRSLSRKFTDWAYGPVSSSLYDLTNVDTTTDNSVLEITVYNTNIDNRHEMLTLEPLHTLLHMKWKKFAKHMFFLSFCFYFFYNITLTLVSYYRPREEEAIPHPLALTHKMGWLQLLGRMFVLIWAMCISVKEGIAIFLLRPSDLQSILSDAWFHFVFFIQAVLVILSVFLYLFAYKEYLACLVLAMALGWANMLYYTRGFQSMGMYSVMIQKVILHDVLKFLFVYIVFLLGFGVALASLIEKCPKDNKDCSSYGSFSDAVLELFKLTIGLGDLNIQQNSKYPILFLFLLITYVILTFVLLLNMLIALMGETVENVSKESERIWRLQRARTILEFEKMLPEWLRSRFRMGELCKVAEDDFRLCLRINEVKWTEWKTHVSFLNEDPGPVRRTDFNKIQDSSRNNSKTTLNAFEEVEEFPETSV
Nature of the assay: In vitro antagonism of recombinant human TRPV3 activation (FLIPR Tetra calcium assay). The format is cell-based. To be noted: HEK293 cells stably expressing human TRPV3; agonist 2-APB at 80 μM; actual measured value shown parenthetically; in most cases average of at least two runs; read-out: IC50. The method, then:
Test compounds were evaluated for ability to antagonize the activation of recombinant human TRPV3 using FLIPR® Tetra cellular screening. Specifically, on the day prior to the experiment recombinant HEK293 cells that stably express human TRPV3 were removed from tissue culture flasks and plated in growth medium at 20,000 cells/well into Poly-d-lysine coated black/clear 384-well Plate (Corning, 3845) using a Multidrop® dispenser (ThermoScientific, Waltham, Mass.). Prior to the start of the assay, the medium was removed by aspiration, and cells were loaded with 30 μL no-wash FLIPR® Calcium-4 dye (λEX=470-495 nm, λEM=515-575 nm; Molecular Devices, Sunnyvale, Calif.). The cells were then incubated for 90-120 minutes in the dark prior to addition of the test compound.
A double-addition protocol was used. The test compound (i.e., the TRPV3 antagonist) was added at the 10 second time point, followed by the addition of a TRPV3 agonist three minutes later. Each test compound evaluated was first dissolved in DMSO to prepare a 10 mM stock solution. A solution (5×) of the test compound was then prepared in DPBS (Dulbecco's Phosphate Buffered Saline) and 10 μl, of that solution was added to the cells at a delivery rate of 40 μL/sec. The TRPV3 agonist used to activate human TRPV3 expressed by the […] was 2-aminoethoxy-diphenyl borate (2-APB; Tocris Cookson, Ellisville, Mo.) at 80 μM. Final assay volume was 50 μl, Total length of an experimental run was 10 minutes.
Changes in fluorescence were measured over time using the FLIPR® instrument. The intensity of the fluorescence was captured and digitally transferred to an interfaced computer. The maximum response minus minimum response was calculated and expressed as the percentage of the maximum 2-APB response in the absence of antagonist. The concentration of 2-APB corresponds to its EC80.
Table 1 reports the IC50 values measured for the test compounds as human TRPV3 antagonists. […] Actual measured values are shown parenthetically after the reported range. In most cases, the values reported are average values from at least two runs (i.e., n≧2).
Turning to `OC(c1ccccn1)C1(c2ccc(F)cc2)CCOCC1` (centres unmarked) [Example 62, [4-(4-fluorophenyl)tetrahydro-2H-pyran-4-yl](pyridin-2-yl)methanol], the IC50 stood at 11.8 µM.

`OC(c1ncccn1)C1(c2ccccc2OC(F)(F)F)CCC1` (centres unmarked) [Example 36, pyrimidin-2-yl{1-[2-(trifluoromethoxy)phenyl]cyclobutyl}methanol]: the concentration for half-maximal inhibition (IC50) amounted to 5.18 µM.

For `OC(CC1(c2ccc(F)cc2)CCC1)c1ccccn1` (centres unmarked) [Example 70, 2-[1-(4-fluorophenyl)cyclobutyl]-1-(pyridin-2-yl)ethanol], the IC50 was 12 µM.

Turning to `CS(=O)(=O)c1ccc(C2(C(O)c3ccccn3)CCC2)cc1` (centres unmarked) [Example 16, {1-[4-(methylsulfonyl)phenyl]cyclobutyl}(pyridin-2-yl)methanol], the IC50 is over 20 µM.

Take `OC(c1ccccn1)C1(c2cccc(F)c2)CCOCC1` (centres unmarked) [Example 61, [4-(3-fluorophenyl)tetrahydro-2H-pyran-4-yl](pyridin-2-yl)methanol]: the IC50 turned out to be 7.54 µM.

Turning to `OC(c1ccccn1)C1(c2ccccc2)CCOCC1` (centres unmarked) [Example 60, (4-phenyltetrahydro-2H-pyran-4-yl)(pyridin-2-yl)methanol], the IC50 was 7.55 µM.

`CC(c1cccc(F)c1)C1(C(O)c2ccccn2)CCC1` (centres unmarked) [Example 47, {1-[1-(3-fluorophenyl)ethyl]cyclobutyl}(pyridin-2-yl)methanol]: the concentration for half-maximal inhibition (IC50) is 2.22 µM.

With `N[C@H]1CCC[C@H]1[C@@H](O)C1(c2ccc(Cl)c(Cl)c2)CCC1` [Example 218, (R)-[(1R,2S)-2-aminocyclopentyl][1-(3,4-dichlorophenyl)cyclobutyl]-methanol], the concentration for half-maximal inhibition (IC50) came to 1.73 µM.

As to `OC(CC1(c2ccc(Cl)c(Cl)c2)CCC1)c1ccccn1` (centres unmarked) [Example 73, 2-[1-(3,4-dichlorophenyl)cyclobutyl]-1-(pyridin-2-yl)ethanol], the 50% inhibitory concentration (IC50) was 1.94 µM.

As to `OC(c1ncccn1)C1(c2ccc(F)cc2)CCC1` (centres unmarked) [Example 34, [1-(4-fluorophenyl)cyclobutyl](pyrimidin-2-yl)methanol], the half-maximal inhibitory concentration (IC50) was over 20 µM.

Consider `O=C1CC(c2ccc(OC(F)(F)F)cc2)([C@H](O)c2ccccn2)C1` (single isomer, unassigned) [Example 251], for which the half-inhibitory concentration (IC50) is 1.97 µM.

Regarding `OC(C1CCCc2cccnc21)C1(c2ccccc2C(F)(F)F)CCC1` (stereo not drawn) [Example 196, (syn)-5,6,7,8-tetrahydroquinolin-8-yl{1-[2-(trifluoromethyl)phenyl]-cyclobutyl}methanol], the concentration for half-maximal inhibition (IC50) was over 20 µM.

`OC(c1ccccn1)C1(c2ccc(-c3ccccc3)cc2)CCC1` (centres unmarked) [Example 22, [1-(1,1′-biphenyl-4-yl)cyclobutyl](pyridin-2-yl)methanol]: the IC50 is over 20 µM.

As to `OC(c1ncccn1)C1(c2ccc(OC(F)(F)F)cc2)CCC1` (centres unmarked) [Example 31, pyrimidin-2-yl{1-[4-(trifluoromethoxy)phenyl]cyclobutyl}methanol], the 50% inhibitory concentration (IC50) amounted to 3.08 µM.

For `NC1CCCCC1C(O)C1(c2ccc(Cl)c(Cl)c2)CCC1` (centres unmarked) [Example 211, (2-aminocyclohexyl)[1-(3,4-dichlorophenyl)cyclobutyl]methanol], the half-maximal inhibitory concentration (IC50) came to 6.17 µM.

With `OC(c1ccccn1)C1(c2ccc(F)c(F)c2)CCOCC1` (centres unmarked) [Example 63, [4-(3,4-difluorophenyl)tetrahydro-2H-pyran-4-yl](pyridin-2-yl)methanol], the concentration for half-maximal inhibition (IC50) was 7.17 µM.

With `N[C@H]1CCC[C@@H]1[C@H](O)C1(c2ccc(Cl)c(Cl)c2)CCC1` [Example 219, (S)-[(1S,2S)-2-aminocyclopentyl][1-(3,4-dichlorophenyl)cyclobutyl]-methanol], the IC50 was determined as 3.07 µM.

On to `OC(CC1(c2ccccc2)CCC1)c1ccccn1` (centres unmarked) [Example 68, 2-(1-phenylcyclobutyl)-1-(pyridin-2-yl)ethanol], for which the 50% inhibitory concentration (IC50) amounted to 3.68 µM.

On to `OC(CC1(c2cccc(F)c2)CCC1)c1ccccn1` (centres unmarked) [Example 71, 2-[1-(3-fluorophenyl)cyclobutyl]-1-(pyridin-2-yl)ethanol], for which the concentration for half-maximal inhibition (IC50) is 2.13 µM.

Regarding `OC(c1ccccn1)C1(C2=CCOCC2)CCC1` (centres unmarked) [Example 252, [1-(3,6-dihydro-2H-pyran-4-yl)cyclobutyl](pyridin-2-yl)methanol], the half-inhibitory concentration (IC50) was over 20 µM.

Take `COc1ccc(C2(C(O)c3ccccn3)CCOC2)cc1OC` (centres unmarked) [Example 84, [3-(3,4-dimethoxyphenyl)tetrahydrofuran-3-yl](pyridin-2-yl)methanol]: the IC50 is over 20 µM.

`OC(c1ccccn1)C1(c2ccc(C(F)(F)F)cc2)CCOC1` (centres unmarked) [Example 78, pyridin-2-yl{3-[4-(trifluoromethyl)phenyl]tetrahydrofuran-3-yl}methanol]: the half-inhibitory concentration (IC50) worked out at 3.56 µM.

Consider `NC1CCCCC1C(O)C1(c2ccc(OC(F)(F)F)cc2)CCC1` (centres unmarked) [Example 209, (2-aminocyclohexyl) {1-[4-(trifluoromethoxy)phenyl]cyclobutyl}methanol], for which the IC50 was 4.6 µM.

For `OC(c1ccccn1)C1(c2ccc(Cl)cc2)CCOCC1` (centres unmarked) [Example 64, [4-(4-chlorophenyl)tetrahydro-2H-pyran-4-yl](pyridin-2-yl)methanol], the concentration for half-maximal inhibition (IC50) is 2.34 µM.

Take `OC(c1ncccn1)C1(c2cccc(F)c2)CCC1` (centres unmarked) [Example 33, [1-(3-fluorophenyl)cyclobutyl](pyrimidin-2-yl)methanol]: the IC50 is 8.5 µM.

For the compound `OC(c1ccccn1)C1(c2cccc(OC(F)(F)F)c2)CCOC1` (centres unmarked) [Example 80, pyridin-2-yl{3-[3-(trifluoromethoxy)phenyl]tetrahydrofuran-3-yl}methanol], the IC50 worked out at 1.78 µM.

With `OC(CC1(c2ccc(Cl)cc2)CCC1)c1ccccn1` (centres unmarked) [Example 69, 2-[1-(4-chlorophenyl)cyclobutyl]-1-(pyridin-2-yl)ethanol], the IC50 came out at 4.97 µM.

Consider `CC(c1cccc(Cl)c1)C1(C(O)c2ccccn2)CCC1` (centres unmarked) [Example 44, {1-[1-(3-chlorophenyl)ethyl]cyclobutyl}(pyridin-2-yl)methanol], for which the 50% inhibitory concentration (IC50) worked out at 8 µM.

`OC(c1ncccn1)C1(c2ccc(F)c(F)c2)CCC1` (centres unmarked) [Example 35, [1-(3,4-difluorophenyl)cyclobutyl](pyrimidin-2-yl)methanol]: the IC50 amounted to 10.2 µM.

With `OC(c1ccccn1)C1(c2cccc(Cl)c2)COC1` (centres unmarked) [Example 86, [3-(3-chlorophenyl)oxetan-3-yl](pyridin-2-yl)methanol], the half-maximal inhibitory concentration (IC50) was determined as 3.56 µM.

For the compound `NC1CCCCC1C(O)C1(c2ccc(C(F)(F)F)cc2)CCC1` (centres unmarked) [Example 207, (2-aminocyclohexyl) {1-[4-(trifluoromethyl)phenyl]cyclobutyl}methanol], the half-inhibitory concentration (IC50) was determined as 3.99 µM.

On to `CC1(O)CC(c2ccnc(C(F)(F)F)c2)(C(O)c2ccccn2)C1` (single isomer, unassigned) [Example 302], for which the 50% inhibitory concentration (IC50) worked out at 0.95 µM.

For the compound `CC(c1ccccc1F)C1(C(O)c2ccccn2)CCC1` (centres unmarked) [Example 48, {1-[1-(2-fluorophenyl)ethyl]cyclobutyl}(pyridin-2-yl)methanol], the concentration for half-maximal inhibition (IC50) came to 5.68 µM.

Regarding `CC(c1ccc(C(F)(F)F)cc1)C1(C(O)c2ccccn2)CCC1` (centres unmarked) [Example 53, pyridin-2-yl(1-{1-[4-(trifluoromethyl)phenyl]ethyl}cyclobutyl)methanol], the IC50 was found to be 1.75 µM.

Regarding `CC(c1ccccc1)C1(C(O)c2ccccn2)CCC1` (centres unmarked) [Example 51, [1-(1-phenylethyl)cyclobutyl](pyridin-2-yl)methanol], the concentration for half-maximal inhibition (IC50) was determined as 8.25 µM.

The assay is the same for the next values; noted with them: HEK293 cells stably expressing human TRPV3; agonist 2-APB at 80 μM; reported range; read-out: IC50 (range class).
In the case of `CS(=O)(=O)c1ccc(C2(C(O)c3ccccn3)CCC2)cc1` (centres unmarked) [Example 16, {1-[4-(methylsulfonyl)phenyl]cyclobutyl}(pyridin-2-yl)methanol], the IC50 was over 20 µM.

`OC(c1ncccn1)C1(c2ccc(F)cc2)CCC1` (centres unmarked) [Example 34, [1-(4-fluorophenyl)cyclobutyl](pyrimidin-2-yl)methanol]: the IC50 is over 20 µM.

Consider `OC(C1CCCc2cccnc21)C1(c2ccccc2C(F)(F)F)CCC1` (stereo not drawn) [Example 196, (syn)-5,6,7,8-tetrahydroquinolin-8-yl{1-[2-(trifluoromethyl)phenyl]-cyclobutyl}methanol], for which the IC50 is over 20 µM.

Consider `OC(c1ccccn1)C1(c2ccc(-c3ccccc3)cc2)CCC1` (centres unmarked) [Example 22, [1-(1,1′-biphenyl-4-yl)cyclobutyl](pyridin-2-yl)methanol], for which the 50% inhibitory concentration (IC50) was over 20 µM.

As to `OC(c1ccccn1)C1(C2=CCOCC2)CCC1` (centres unmarked) [Example 252, [1-(3,6-dihydro-2H-pyran-4-yl)cyclobutyl](pyridin-2-yl)methanol], the IC50 is over 20 µM.

Regarding `COc1ccc(C2(C(O)c3ccccn3)CCOC2)cc1OC` (centres unmarked) [Example 84, [3-(3,4-dimethoxyphenyl)tetrahydrofuran-3-yl](pyridin-2-yl)methanol], the IC50 was over 20 µM.
